Data published in patent US11319299B2, “Substituted carboxamides as inhibitors of WDR5 protein-protein binding” (PROPELLON THERAPEUTICS INC., priority 2016, dated 2022).

molecular target: WDR5 (Homo sapiens (Human), UniProt P61964); test: Surface Plasmon Resonance (SPR) assay, KD and residence time; format: binding; settings: surface plasmon resonance (SPR) assay; read-out: WDR5 binding affinity (KD)
Procedure: (i) Surface Plasmon Resonance (SPR) Assay
The lifetime of a drug on its target is determined by two rate constants: the association rate constant (kon) and the dissociation rate constant (koff). In principle, the lifetime of the binary drug—target complex is thus extended by a rapid rate of drug binding and/or a slow rate of drug—target complex dissociation. The in vivo lifetime of a drug-target complex is most critically dependent on the value of the koff [Nat. Rev. Drug Discov. […] Drug Discov. […] Drug-target residence time is defined as the reciprocal of koff (τ=1/koff), making the residence time a parameter that is easily measured by routine in vitro assay methods.

`C[C@@H]1CN(c2cc(F)c(C3=CC4CCC(C3)N4C(=O)OC(C)(C)C)cc2NC(=O)c2cn(C)c(=O)cc2C(F)(F)F)C[C@H](C)N1C` (mixture of isomers) [Example 327, tert-butyl 3-[2-fluoro-5-[[-methyl-6-oxo-4-(trifluoromethyl)pyridine-3-carbonyl]amino]-4-[(3R,5S)-3,4,5-trimethylpiperazin-1-yl]phenyl]-8-azabicyclo[3.2.1]oct-2-ene-8-carboxylate] and `C[C@H]1CN(c2cc(F)c(-c3cnc(N4CCN(C)CC4)nc3)cc2NC(=O)c2ccc(F)cc2C(F)(F)F)C[C@H](C)N1C` (racemic) [Example 382, 4-fluoro-N-[4-fluoro-5-[2-(4-methylpiperazin-1-yl)pyrimidin-5-yl]-2-[(3R,5R)-3,4,5-trimethylpiperazin-1-yl]phenyl]-2-(trifluoromethyl)benzamide] are within 1.5-fold of each other in Kd: 123 nM for the first, 117 nM for the second.

Going from `C[C@H]1CN(c2cc(F)c(-c3cnc(N4CCOCC4)nc3)cc2NC(=O)c2ccc(F)cc2C(F)(F)F)C[C@H](C)N1C` (racemic) [Example 387, 4-fluoro-N-[4-fluoro-5-(2-morpholin-4-ylpyrimidin-5-yl)-2-[(3R,5R)-3,4,5-trimethylpiperazin-1-yl]phenyl]-2-(trifluoromethyl)benzamide] to `CC1CN(c2cc(Cl)c(-c3cnc(N4CCOCC4)nc3)cc2NC(=O)c2c[nH]c(=O)cc2C(F)(F)F)CCN1C` (stereo in doubt) [Example 81, N-[4-chloro-5-(2-morpholin-4-ylpyrimidin-5-yl)-2-[(3R)-3,4-dimethylpiperazin-1-yl]phenyl]-6-oxo-4-(trifluoromethyl)-1H-pyridine-3-carboxamide], the Kd falls from 83.5 nM to 11.1 nM (7.5-fold). The second binds more tightly here.

Compared with `CC1CN(c2cc(F)c(-c3cnc(N4CCOCC4)nc3)cc2NC(=O)c2ccccc2)CCN1C` (stereo in doubt) [Example 78, N-[4-fluoro-5-(2-morpholin-4-ylpyrimidin-5-yl)-2-[(3R)-3,4-dimethylpiperazin-1-yl]phenyl]benzamide], `CC1CN(c2cc(F)c(-c3cnc(N4CCOCC4)nc3)cc2NC(=O)c2cccnc2)CCN1C` (stereo in doubt) [Example 80, N-[4-fluoro-5-(2-morpholin-4-ylpyrimidin-5-yl)-2-[(3R)-3,4-dimethylpiperazin-1-yl]phenyl]pyridine-3-carboxamide] is higher in Kd: 17.9 nM for the first, greater than 200 nM for the second.

Going from `CC1CN(c2cc(F)c(-c3cnc(N4CCOCC4)nc3)cc2NC(=O)c2ccco2)CCN1C` (stereo in doubt) [Example 79, N-[4-fluoro-5-(2-morpholin-4-ylpyrimidin-5-yl)-2-[(3R)-3,4-dimethylpiperazin-1-yl]phenyl]furan-2-carboxamide] to `CC1CN(c2cc(F)c(-c3cnc(N4CCOCC4)nc3)cc2NC(=O)c2nn(C)c3ccccc23)CCN1C` (stereo in doubt) [Example 116, N-[4-fluoro-5-(2-morpholin-4-ylpyrimidin-5-yl)-2-[(3R)-3,4-dimethylpiperazin-1-yl]phenyl]-1-methylindazole-3-carboxamide], the Kd falls from greater than 200 nM to 76.8 nM. The second binds more tightly here.

same assay, conditions: surface plasmon resonance (SPR); read-out: WDR5 binding affinity (KD)

In order of falling Kd:
1. C[C@@H]1CN(c2ncc(-c3cc(NC(=O)c4cn(C)c(=O)cc4C(F)(F)F)c(N4CC[C@@H](N(C)C)C4)cc3F)cn2)C[C@H](C)O1 (racemic) [Example 426, N-[4-fluoro-2-[(3S)-3-(dimethylamino)pyrrolidin-1-yl]-5-[2-[(2R,6S)-2,6-dimethylmorpholin-4-yl]pyrimidin-5-yl]phenyl]-1-methyl-6-oxo-4-(trifluoromethyl)pyridine-3-carboxamide]  10.9 nM
2. CCN(C)[C@@H]1CCN(c2cc(F)c(-c3cnc(N4C[C@@H](C)O[C@@H](C)C4)nc3)cc2NC(=O)c2cn(C)c(=O)cc2C(F)(F)F)C1 (racemic) [Example 427, N-[4-fluoro-5-[2-[(2R,6S)-2,6-dimethylmorpholin-4-yl]pyrimidin-5-yl]-2-[(3S)-3-[ethyl(methyl)amino]pyrrolidin-1-yl]phenyl]-1-methyl-6-oxo-4-(trifluoromethyl)pyridine-3-carboxamide]  5.59 nM
3. C[C@@H]1CN(c2cc(F)c(-c3ccnc(N4CCO[C@@H](C)C4)n3)cc2NC(=O)c2cn(C)c(=O)cc2C(F)(F)F)C[C@H](C)N1C (racemic) [Example 694, N-[4-fluoro-5-[2-[(2R)-2-methylmorpholin-4-yl]pyrimidin-4-yl]-2-[(3S,5R)-3,4,5-trimethylpiperazin-1-yl]phenyl]-1-methyl-6-oxo-4-(trifluoromethyl)pyridine-3-carboxamide]  4.92 nM
4. 4-(difluoromethyl)-N-[4-fluoro-5-[2-[(2R)-2-methylmorpholin-4-yl]pyrimidin-5-yl]-2-[(3S,5R)-3,4,5-trimethylpiperazin-1-yl]phenyl]-1-methyl-6-oxopyridine-3-carboxamide [Example 481]  4.89 nM
5. C[C@@H]1CN(c2ncc(-c3cc(NC(=O)c4cn(C)c(=O)cc4C(F)F)c(N4CCN(C)[C@@H](C)C4)cc3F)cn2)CCO1 (racemic) [Example 460, 4-(difluoromethyl)-N-[4-fluoro-2-[(3S)-3,4-dimethylpiperazin-1-yl]-5-[2-[(2R)-2-methylmorpholin-4-yl]pyrimidin-5-yl]phenyl]-1-methyl-6-oxopyridine-3-carboxamide]  3.43 nM
6. C[C@@H]1CN(c2ccc(-c3cc(NC(=O)c4cn(C)c(=O)cc4C(F)(F)F)c(N4CCN(C)[C@@H](C)C4)cc3F)cn2)C[C@H](C)O1 (racemic) [Example 421, N-[4-fluoro-5-[6-[(2R,6S)-2,6-dimethylmorpholin-4-yl]pyridin-3-yl]-2-[(3R)-3,4-dimethylpiperazin-1-yl]phenyl]-1-methyl-6-oxo-4-(trifluoromethyl)pyridine-3-carboxamide]  1.96 nM
7. C[C@@H]1CN(c2nccc(-c3cc(NC(=O)c4c[nH]c(=O)cc4C(F)(F)F)c(N4C[C@@H](C)N(C)[C@@H](C)C4)cc3F)n2)CCO1 (racemic) [Example 691, N-[4-fluoro-5-[2-[(2R)-2-methylmorpholin-4-yl]pyrimidin-4-yl]-2-[(3R,5S)-3,4,5-trimethylpiperazin-1-yl]phenyl]-6-oxo-4-(trifluoromethyl)-H-pyridine-3-carboxamide]  1.31 nM
8. 4-(difluoromethyl)-N-[4-fluoro-5-[6-(oxan-4-yloxy)pyridin-3-yl]-2-[(3R)-3,4-dimethylpiperazin-1-yl]phenyl]-6-oxo-1H-pyridine-3-carboxamide [Example 403]  1.16 nM
9. C[C@H]1CN(c2cc(F)c(-c3cnc(N4CCOC[C@@H]4C)nc3)cc2NC(=O)c2cn(C)c(=O)cc2C(F)(F)F)CCN1C (racemic) [Example 608, N-[4-fluoro-2-[(3R)-3,4-dimethylpiperazin-1-yl]-5-[2-[(3R)-3-methylmorpholin-4-yl]pyrimidin-5-yl]phenyl]-1-methyl-6-oxo-4-(trifluoromethyl)pyridine-3-carboxamide]  0.977 nM
10. C[C@@H]1CN(c2cc(F)c(-c3ccc(N4CCO[C@@H](C)C4)nc3)cc2NC(=O)c2c[nH]c(=O)cc2C(F)(F)F)C[C@H](C)N1C (racemic) [Example 434, N-[4-fluoro-5-[6-[(2R)-2-methylmorpholin-4-yl]pyridin-3-yl]-2-[(3S,5R)-3,4,5-trimethylpiperazin-1-yl]phenyl]-6-oxo-4-(trifluoromethyl)-1H-pyridine-3-carboxamide]  0.617 nM
